Laboratory results from patent US20050101595A1, “N-containing cycloalkyl-substituted amino-thiazole derivatives and pharmaceutical compositions for inhibiting cell proliferation and methods for their use” (PFIZER INC., priority 2003, published 2005).

Tested on: HCT-116 cell line
Test: Inhibition of cell growth, tetrazolium salt (MTT) assay
Assay type: cell-based
Details: compound at 250 nM; for inhibition at 0.25 µM: Homo sapiens, HCT-116, HCT116 cells, read-out: % Inhibition HCT116 @ 250 nM; for % Inhibition HCT116 @ 250 nM: HCT116 cells, 0.25 µM
Protocol: Inhibition of Cell Growth: Assessment of Cytotoxicity:
Inhibition of cell growth was measured using the tetrazolium salt assay, which is based on the ability of viable cells to reduce 3-(4,5-dimethylthiazol-2-yl)-2,5-[2H]-diphenyltetrazolium bromide (MTT) to formazan (Mossman, Journal of Immunological Methods, vol. 65 (1983), pp. 55-58). The water-insoluble purple formazan product was then detected spectrophotometrically. The HCT-116 cell line was used as a representative cancer cell line and grown in 96-well plates. Cells were plated in McCoy's 5A Medium at a volume of 135 μl/well. Plates were incubated for four hours before addition of inhibitor compounds. Different concentrations of inhibitor compounds were added in 0.5% (v/v) dimethylsulfoxide (15 μLuwell), and cells were incubated at 37° C. (5% CO2) for three to five days. At the end of the incubation, MTT was added to a final concentration of 0.2 mg/mL, and cells were incubated for 4 hours more at 37° C. After centrifugation of the plates and removal of medium, the absorbance of the formazan (solubilized in dimethylsulfoxide) was measured at 540 nm. […] All results were compared to control cells treated only with 0.5% (v/v) dimethylsulfoxide.

| SMILES | inhibition at 0.25 µM [%] | % Inhibition HCT116 @ 250 nM [%] |
| --- | --- | --- |
| CCN(CCS(=O)(=O)N1CCC(Nc2nc(N)c(C(=O)c3c(F)cccc3F)s2)CC1)Cc1ccncc1 [Example S45] | 13 |  |
| COCCN(CCOC)CCS(=O)(=O)N1CCC(Nc2nc(N)c(C(=O)c3c(F)cccc3F)s2)CC1 [Example S46] | 58 |  |
| C=CC(O)CN(CCC)CCS(=O)(=O)N1CCC(Nc2nc(N)c(C(=O)c3c(F)cccc3F)s2)CC1 (centres unmarked) [Example S47] | 8 |  |
| NC(=O)C1CCN(CCS(=O)(=O)N2CCC(Nc3nc(N)c(C(=O)c4c(F)cccc4F)s3)CC2)CC1 [Example S48] | 17 |  |
| COC(=O)CN(C)CCS(=O)(=O)N1CCC(Nc2nc(N)c(C(=O)c3c(F)cccc3F)s2)CC1 [Example S49] | 33 |  |
| CN(CCc1ccncc1)CCS(=O)(=O)N1CCC(Nc2nc(N)c(C(=O)c3c(F)cccc3F)s2)CC1 [Example S50] | 17 |  |
| C=C(C)CN(C)CCS(=O)(=O)N1CCC(Nc2nc(N)c(C(=O)c3c(F)cccc3F)s2)CC1 [Example S51] | 83 |  |
| CC(=O)N1CCN(CCS(=O)(=O)N2CCC(Nc3nc(N)c(C(=O)c4c(F)cccc4F)s3)CC2)CC1 [Example S52] | 18 |  |
| CN(CC#N)CCS(=O)(=O)N1CCC(Nc2nc(N)c(C(=O)c3c(F)cccc3F)s2)CC1 [Example S53] | 17 |  |
| Nc1nc(NC2CCN(S(=O)(=O)CCN3CCC[C@@H]3CO)CC2)sc1C(=O)c1c(F)cccc1F [Example S54] | 16 |  |
| CN(CCS(=O)(=O)N1CCC(Nc2nc(N)c(C(=O)c3c(F)cccc3F)s2)CC1)CC(=O)N(C)C [Example S55] | 7 |  |
| Nc1nc(NC2CCN(S(=O)(=O)CCNCc3cccnc3)CC2)sc1C(=O)c1c(F)cccc1F [Example S56] |  | 73 |
| Nc1nc(NC2CCN(S(=O)(=O)CCNC3CCCCC3)CC2)sc1C(=O)c1c(F)cccc1F [Example S58] | 50 |  |
| Nc1nc(NC2CCN(S(=O)(=O)CCNC3CCC3)CC2)sc1C(=O)c1c(F)cccc1F [Example S59] | 40 |  |
| Nc1nc(NC2CCN(S(=O)(=O)CCNC3CC3)CC2)sc1C(=O)c1c(F)cccc1F [Example S60] | 72 |  |
| CN(C)[C@H]1CCN(CCS(=O)(=O)N2CCC(Nc3nc(N)c(C(=O)c4c(F)cccc4F)s3)CC2)C1 [Example S61] | 8 |  |
| CN(C)[C@@H]1CCN(CCS(=O)(=O)N2CCC(Nc3nc(N)c(C(=O)c4c(F)cccc4F)s3)CC2)C1 [Example S62] | 6 |  |
| Nc1nc(NC2CCN(S(=O)(=O)CCN3CCC(CO)CC3)CC2)sc1C(=O)c1c(F)cccc1F [Example S63] | 4 |  |
| NC(=O)[C@H]1CCCN1CCS(=O)(=O)N1CCC(Nc2nc(N)c(C(=O)c3c(F)cccc3F)s2)CC1 [Example S64] | 12 |  |
| COCCN(C)CCS(=O)(=O)N1CCC(Nc2nc(N)c(C(=O)c3c(F)cccc3F)s2)CC1 [Example S65] | 8 |  |
| CN(C)C(=O)[C@H]1CCCN1CCS(=O)(=O)N1CCC(Nc2nc(N)c(C(=O)c3c(F)cccc3F)s2)CC1 [Example S66] | 14 |  |
| Nc1nc(NC2CCN(S(=O)(=O)CCNCC3CCCCC3)CC2)sc1C(=O)c1c(F)cccc1F [Example S67] | 40 |  |
| Nc1nc(NC2CCN(S(=O)(=O)CCNC3CCCc4ccccc43)CC2)sc1C(=O)c1c(F)cccc1F (centres unmarked) [Example S68] | 21 |  |
| CN1CCCC1CCNCCS(=O)(=O)N1CCC(Nc2nc(N)c(C(=O)c3c(F)cccc3F)s2)CC1 (centres unmarked) [Example S69] | 31 |  |
| CCN1CCCC1CNCCS(=O)(=O)N1CCC(Nc2nc(N)c(C(=O)c3c(F)cccc3F)s2)CC1 (centres unmarked) [Example S70] | 23 |  |

| SMILES | inhibition at 0.25 µM [%] | % Inhibition HCT116 @ 250 nM [%] |
| --- | --- | --- |
| Nc1nc(NC2CCN(S(=O)(=O)CCNCCCN3CCCC3=O)CC2)sc1C(=O)c1c(F)cccc1F [Example S71] | 23 |  |
| Nc1nc(NC2CCN(S(=O)(=O)CCNCc3ccco3)CC2)sc1C(=O)c1c(F)cccc1F [Example S72] | 19 |  |
| Nc1nc(NC2CCN(S(=O)(=O)CCNC3CCc4ccccc43)CC2)sc1C(=O)c1c(F)cccc1F (centres unmarked) [Example S73] | 16 |  |
| CC(C)C(CO)NCCS(=O)(=O)N1CCC(Nc2nc(N)c(C(=O)c3c(F)cccc3F)s2)CC1 (centres unmarked) [Example S74] | 9 |  |
| Nc1nc(NC2CCN(S(=O)(=O)CCNCCc3cnc[nH]3)CC2)sc1C(=O)c1c(F)cccc1F [Example S75] | 12 |  |
| Nc1nc(NC2CCN(S(=O)(=O)CCN[C@@H]3CONC3=O)CC2)sc1C(=O)c1c(F)cccc1F [Example S76] | 11 |  |
| Nc1nc(NC2CCN(S(=O)(=O)CCNCC3CCCO3)CC2)sc1C(=O)c1c(F)cccc1F (centres unmarked) [Example S77] | 9 |  |
| CC(NCCS(=O)(=O)N1CCC(Nc2nc(N)c(C(=O)c3c(F)cccc3F)s2)CC1)c1ccccc1 (centres unmarked) [Example S78] | 49 |  |
| Nc1nc(NC2CCN(S(=O)(=O)CCN[C@@H](CO)c3ccccc3)CC2)sc1C(=O)c1c(F)cccc1F [Example S79] | 14 |  |
| CC(C)(CO)NCCS(=O)(=O)N1CCC(Nc2nc(N)c(C(=O)c3c(F)cccc3F)s2)CC1 [Example S80] | 13 |  |
| CC(C)(C)NCCS(=O)(=O)N1CCC(Nc2nc(N)c(C(=O)c3c(F)cccc3F)s2)CC1 [Example S81] | 82 |  |
| Nc1nc(NC2CCN(S(=O)(=O)CCNCCN3CCCCC3)CC2)sc1C(=O)c1c(F)cccc1F [Example S82] | 15 |  |
| Nc1nc(NC2CCN(S(=O)(=O)CCNCc3ccncc3)CC2)sc1C(=O)c1c(F)cccc1F [Example S83] | 6 |  |
| Nc1nc(NC2CCN(S(=O)(=O)CCNCc3cccnc3)CC2)sc1C(=O)c1c(F)cccc1F [Example S84] |  | 12 |
| Nc1nc(NC2CCN(S(=O)(=O)CCNCCc3ccccn3)CC2)sc1C(=O)c1c(F)cccc1F [Example S85] | 19 |  |
| Nc1nc(NC2CCN(S(=O)(=O)CCNCc3ccccn3)CC2)sc1C(=O)c1c(F)cccc1F [Example S86] | 11 |  |
| Nc1nc(NC2CCN(S(=O)(=O)CCNCCN3CCOCC3)CC2)sc1C(=O)c1c(F)cccc1F [Example S87] | 13 |  |
| Nc1nc(NC2CCN(S(=O)(=O)CCNCc3cccs3)CC2)sc1C(=O)c1c(F)cccc1F [Example S88] | 28 |  |
| COCC(C)NCCS(=O)(=O)N1CCC(Nc2nc(N)c(C(=O)c3c(F)cccc3F)s2)CC1 (centres unmarked) [Example S89] | 17 |  |
| CC(CO)NCCS(=O)(=O)N1CCC(Nc2nc(N)c(C(=O)c3c(F)cccc3F)s2)CC1 (centres unmarked) [Example S90] | 7 |  |
| CCOC(=O)CC(C)NCCS(=O)(=O)N1CCC(Nc2nc(N)c(C(=O)c3c(F)cccc3F)s2)CC1 (centres unmarked) [Example S91] | 10 |  |
| CCC(CO)NCCS(=O)(=O)N1CCC(Nc2nc(N)c(C(=O)c3c(F)cccc3F)s2)CC1 (centres unmarked) [Example S92] | 8 |  |
| CCCC(C)NCCS(=O)(=O)N1CCC(Nc2nc(N)c(C(=O)c3c(F)cccc3F)s2)CC1 (centres unmarked) [Example S93] | 33 |  |
| Nc1nc(NC2CCN(S(=O)(=O)CCNCc3ccccc3)CC2)sc1C(=O)c1c(F)cccc1F [Example S94] | 64 |  |
| Nc1nc(NC2CCN(S(=O)(=O)CCNCc3ccccc3F)CC2)sc1C(=O)c1c(F)cccc1F [Example S95] | 51 |  |
